Earlier results on 1 molecule are cited in PMC10640708 (ACS chemical biology, 2018).

pEC50: −log10 of the molar value.

The series has as its target calcium sensing receptor (CaSR). To be noted: read-out: EC50 of CaSR activation; Ca2+ alone.

As usually defined, the pEC50 is the negative decadic logarithm of the EC50, by convention in mol/L. For `[Ca+2]` [Ca^2+], the pEC50 was approximately 2.40.
